Reference: ChEMBL document CHEMBL5465560, “Selectivity Literature for EUbOPEN Chemogenomic Library” (2024)
Each block holds one molecule with its values, some of them ahead of it.

Key:
[1] = target: Serine/threonine-protein kinase WNK3 (Homo sapiens) (UniProt Q9BYP7); experiment: Selectivity interaction (LanthaScreen Eu Kinase Binding Assay) EUB0001632a WNK3; details: at 10 µM
[2] = target: Tyrosine-protein kinase Lyn (Homo sapiens, UniProt P07948); experiment: Selectivity interaction (ActivX KiNativ screen (kinase selectivity in THP-1 cell lysates)) EUB0000639a LYN; type: subcellular; details: lysate, at 5 µM
[3] = target: T1, cGMP-dependent protein kinase 1 (Homo sapiens) (UniProt Q13976); experiment: Selectivity interaction (ProQinase) EUB0000171b PRKG1
T1 sequence (whole entry): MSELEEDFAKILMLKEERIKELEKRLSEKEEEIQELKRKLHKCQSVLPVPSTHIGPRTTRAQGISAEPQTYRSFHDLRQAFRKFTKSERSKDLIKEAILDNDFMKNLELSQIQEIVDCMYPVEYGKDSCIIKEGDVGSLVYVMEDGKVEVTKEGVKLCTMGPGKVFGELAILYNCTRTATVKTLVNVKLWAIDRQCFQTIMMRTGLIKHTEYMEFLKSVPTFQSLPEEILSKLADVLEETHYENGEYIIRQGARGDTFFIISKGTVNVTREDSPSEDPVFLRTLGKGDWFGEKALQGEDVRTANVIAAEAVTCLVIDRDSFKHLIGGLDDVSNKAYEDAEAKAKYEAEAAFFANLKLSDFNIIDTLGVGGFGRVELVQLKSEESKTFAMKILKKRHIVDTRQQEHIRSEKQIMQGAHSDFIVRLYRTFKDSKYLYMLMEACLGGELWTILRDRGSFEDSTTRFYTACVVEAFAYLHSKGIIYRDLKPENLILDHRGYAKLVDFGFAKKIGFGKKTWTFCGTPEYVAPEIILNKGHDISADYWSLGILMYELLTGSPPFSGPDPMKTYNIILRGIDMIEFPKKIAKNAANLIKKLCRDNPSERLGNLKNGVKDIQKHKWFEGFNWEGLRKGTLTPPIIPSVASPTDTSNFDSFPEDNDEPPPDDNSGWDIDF

[4] = target: T2, Tyrosine-protein kinase Mer (Homo sapiens) (UniProt Q12866); experiment: Selectivity interaction (KinomeScan (DiscoverX)) EUB0001049a MERTK; details: at 1 µM
T2 sequence (whole entry): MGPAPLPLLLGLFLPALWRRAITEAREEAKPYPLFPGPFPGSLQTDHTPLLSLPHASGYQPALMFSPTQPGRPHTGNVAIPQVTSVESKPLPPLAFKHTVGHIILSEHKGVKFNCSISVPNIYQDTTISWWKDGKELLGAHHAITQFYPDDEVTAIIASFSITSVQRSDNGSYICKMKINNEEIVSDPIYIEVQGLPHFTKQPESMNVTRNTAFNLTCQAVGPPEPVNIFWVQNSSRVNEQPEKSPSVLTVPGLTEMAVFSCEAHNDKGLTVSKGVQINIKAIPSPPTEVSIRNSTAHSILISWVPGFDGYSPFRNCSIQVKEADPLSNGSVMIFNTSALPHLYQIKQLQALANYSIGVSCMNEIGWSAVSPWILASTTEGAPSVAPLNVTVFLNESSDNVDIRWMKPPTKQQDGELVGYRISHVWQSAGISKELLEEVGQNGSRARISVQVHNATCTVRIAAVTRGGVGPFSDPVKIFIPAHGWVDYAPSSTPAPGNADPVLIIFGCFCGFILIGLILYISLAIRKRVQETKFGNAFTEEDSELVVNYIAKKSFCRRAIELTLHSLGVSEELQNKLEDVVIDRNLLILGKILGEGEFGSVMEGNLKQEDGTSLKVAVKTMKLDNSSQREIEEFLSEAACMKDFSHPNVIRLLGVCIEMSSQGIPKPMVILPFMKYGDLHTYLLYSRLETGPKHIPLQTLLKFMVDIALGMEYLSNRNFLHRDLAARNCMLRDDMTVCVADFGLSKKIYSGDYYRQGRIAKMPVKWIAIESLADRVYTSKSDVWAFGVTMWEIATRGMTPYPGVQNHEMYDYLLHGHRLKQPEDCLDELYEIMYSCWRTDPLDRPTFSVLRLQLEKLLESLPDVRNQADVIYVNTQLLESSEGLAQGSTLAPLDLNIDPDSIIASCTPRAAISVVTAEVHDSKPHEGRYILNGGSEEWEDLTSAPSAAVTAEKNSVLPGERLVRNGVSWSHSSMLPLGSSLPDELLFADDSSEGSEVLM

[5] = target: T3, Muscle, skeletal receptor tyrosine-protein kinase (Homo sapiens) (UniProt O15146); experiment: Selectivity interaction (Ambit KINOMEscan and KiNATiv profiling in Jurkat cells) EUB0000090b MUSK; type: cell-based; details: at 1 µM
T3 sequence (whole entry): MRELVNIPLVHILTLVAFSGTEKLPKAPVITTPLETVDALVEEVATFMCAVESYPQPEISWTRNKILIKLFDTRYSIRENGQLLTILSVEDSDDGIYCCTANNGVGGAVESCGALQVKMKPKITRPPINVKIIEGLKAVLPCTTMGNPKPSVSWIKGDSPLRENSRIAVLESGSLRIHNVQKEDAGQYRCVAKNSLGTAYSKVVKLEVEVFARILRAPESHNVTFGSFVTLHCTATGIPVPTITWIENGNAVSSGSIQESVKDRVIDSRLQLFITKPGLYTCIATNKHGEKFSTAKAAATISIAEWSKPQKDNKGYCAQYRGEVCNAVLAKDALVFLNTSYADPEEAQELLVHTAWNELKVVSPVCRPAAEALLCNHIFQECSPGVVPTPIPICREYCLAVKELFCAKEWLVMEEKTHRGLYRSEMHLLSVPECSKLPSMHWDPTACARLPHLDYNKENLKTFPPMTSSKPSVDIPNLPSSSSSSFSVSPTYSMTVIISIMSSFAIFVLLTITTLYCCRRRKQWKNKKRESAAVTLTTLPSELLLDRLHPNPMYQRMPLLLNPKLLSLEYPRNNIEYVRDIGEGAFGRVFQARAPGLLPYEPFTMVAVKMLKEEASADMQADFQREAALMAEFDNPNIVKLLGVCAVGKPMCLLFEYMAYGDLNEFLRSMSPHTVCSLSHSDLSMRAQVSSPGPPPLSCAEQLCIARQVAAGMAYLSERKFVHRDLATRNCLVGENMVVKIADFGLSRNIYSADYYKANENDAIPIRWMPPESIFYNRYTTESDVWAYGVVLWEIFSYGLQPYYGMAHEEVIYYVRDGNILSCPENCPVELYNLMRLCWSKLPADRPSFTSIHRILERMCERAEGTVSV

[6] = target: Dual specificity tyrosine-phosphorylation-regulated kinase 1A (Homo sapiens, UniProt Q13627); experiment: Selectivity interaction (Ambit KINOMEscan and KiNATiv profiling in Jurkat cells) EUB0000090b DYRK1A; type: cell-based; details: at 1 µM

Chain of Tyrosine-protein kinase Lyn (P07948 2-512 limits assumed): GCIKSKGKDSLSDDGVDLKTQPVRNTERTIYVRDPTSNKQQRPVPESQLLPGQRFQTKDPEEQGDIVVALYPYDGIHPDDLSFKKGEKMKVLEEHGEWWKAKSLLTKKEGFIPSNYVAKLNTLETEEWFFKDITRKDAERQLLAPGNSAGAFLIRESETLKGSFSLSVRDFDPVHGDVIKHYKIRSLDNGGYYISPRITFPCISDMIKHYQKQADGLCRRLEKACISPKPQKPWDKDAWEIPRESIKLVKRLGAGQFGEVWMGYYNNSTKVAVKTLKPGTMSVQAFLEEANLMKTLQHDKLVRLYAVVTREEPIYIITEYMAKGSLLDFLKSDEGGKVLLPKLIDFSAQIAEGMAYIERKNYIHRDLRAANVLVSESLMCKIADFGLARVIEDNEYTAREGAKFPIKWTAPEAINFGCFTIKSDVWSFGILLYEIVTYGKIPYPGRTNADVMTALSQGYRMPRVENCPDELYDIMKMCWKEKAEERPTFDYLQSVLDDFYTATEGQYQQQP
Chain of Serine/threonine-protein kinase WNK3 (Homo sapiens) (Q9BYP7 whole entry): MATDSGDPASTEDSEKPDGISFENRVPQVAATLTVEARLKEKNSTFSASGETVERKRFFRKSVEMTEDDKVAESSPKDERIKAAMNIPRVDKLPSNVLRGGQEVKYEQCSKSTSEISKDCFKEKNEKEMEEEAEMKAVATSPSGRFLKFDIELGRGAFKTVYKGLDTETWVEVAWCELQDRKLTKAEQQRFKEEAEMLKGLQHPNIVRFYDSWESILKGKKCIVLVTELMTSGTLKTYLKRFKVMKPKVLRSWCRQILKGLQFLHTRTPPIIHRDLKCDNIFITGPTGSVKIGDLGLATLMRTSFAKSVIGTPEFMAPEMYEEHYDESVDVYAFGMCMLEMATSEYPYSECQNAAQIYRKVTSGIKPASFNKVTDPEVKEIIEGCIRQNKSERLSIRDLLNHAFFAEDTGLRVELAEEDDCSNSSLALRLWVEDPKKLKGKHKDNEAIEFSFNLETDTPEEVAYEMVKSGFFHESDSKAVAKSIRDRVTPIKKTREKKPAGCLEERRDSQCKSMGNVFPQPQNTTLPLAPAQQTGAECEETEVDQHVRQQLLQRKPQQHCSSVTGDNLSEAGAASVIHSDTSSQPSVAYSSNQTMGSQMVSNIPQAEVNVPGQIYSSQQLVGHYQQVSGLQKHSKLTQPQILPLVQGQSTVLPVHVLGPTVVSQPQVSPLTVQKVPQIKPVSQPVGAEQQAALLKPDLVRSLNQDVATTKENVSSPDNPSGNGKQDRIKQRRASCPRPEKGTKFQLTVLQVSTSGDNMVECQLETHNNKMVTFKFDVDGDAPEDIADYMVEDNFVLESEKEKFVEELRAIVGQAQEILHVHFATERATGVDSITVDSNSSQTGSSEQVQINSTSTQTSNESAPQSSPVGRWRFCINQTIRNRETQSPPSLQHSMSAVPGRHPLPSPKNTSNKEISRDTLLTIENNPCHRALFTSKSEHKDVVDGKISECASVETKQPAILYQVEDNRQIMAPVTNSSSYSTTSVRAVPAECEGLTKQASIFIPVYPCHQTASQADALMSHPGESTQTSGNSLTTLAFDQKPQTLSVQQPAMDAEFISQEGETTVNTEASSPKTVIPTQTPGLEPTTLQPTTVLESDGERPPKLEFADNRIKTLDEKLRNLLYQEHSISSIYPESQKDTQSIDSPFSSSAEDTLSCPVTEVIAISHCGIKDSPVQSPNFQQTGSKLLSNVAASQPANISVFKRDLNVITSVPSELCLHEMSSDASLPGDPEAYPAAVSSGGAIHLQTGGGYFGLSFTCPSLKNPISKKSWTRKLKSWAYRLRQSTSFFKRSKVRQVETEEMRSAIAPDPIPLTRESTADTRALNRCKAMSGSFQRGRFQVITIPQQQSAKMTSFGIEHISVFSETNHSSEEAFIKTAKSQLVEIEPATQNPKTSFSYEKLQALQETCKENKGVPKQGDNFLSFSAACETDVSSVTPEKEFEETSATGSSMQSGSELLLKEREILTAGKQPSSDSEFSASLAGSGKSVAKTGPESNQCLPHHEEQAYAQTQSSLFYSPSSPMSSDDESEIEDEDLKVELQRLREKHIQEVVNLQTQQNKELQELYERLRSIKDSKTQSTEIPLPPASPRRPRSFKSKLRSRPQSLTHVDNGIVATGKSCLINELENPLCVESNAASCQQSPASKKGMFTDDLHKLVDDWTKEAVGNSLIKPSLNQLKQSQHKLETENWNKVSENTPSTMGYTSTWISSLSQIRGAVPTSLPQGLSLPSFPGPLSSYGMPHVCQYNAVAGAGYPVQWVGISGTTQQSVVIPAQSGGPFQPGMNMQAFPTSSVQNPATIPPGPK

% of inhibition [1]: -35.1%
SMILES: Cn1cc(-n2cnc3c(NCc4nc5cc(Cl)c(Cl)cc5[nH]4)nc(N4CCOCC4)nc32)cn1

% of inhibition [2]: -9.2%
SMILES: CC[C@@H]1[C@H](F)C(=O)N[C@@H]1COc1nccc2cc(C(N)=O)c(OC)cc12 [ZIMLOVISERTIB]

% of control ([3]; at 1 µM): 92%
% of control ([3]; at 5 µM): 87%
SMILES: C=CC(=O)Nc1cccc(C(=O)Nc2ccc(Nc3cc(-c4[nH]c(SC)nc4C)ccn3)cc2)c1

SMILES: COc1cc(Nc2nc(C)cc(-c3cnn4nc(OC)ccc34)n2)cc(C(F)(F)F)c1
% of control [4]: 98%

SMILES: CN(C)C/C=C/C(=O)Nc1ccc(C(=O)N2CCCC(Nc3ncc(Cl)c(-c4c[nH]c5ccccc45)n3)C2)cc1 (configuration not stated)
% of control [5]: 96%
% of control [6]: 30%
